PubChem BioAssay (NCI)
Where “and” joins values, the source holds several entries; their conditions need not be identical. Equal entries are not always repeated.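 48-hour exposure; five concentrations; linearly interpolated endpoints. GI50 is the concentration that inhibits growth by half. TGI marks complete inhibition of growth.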

system: SF-268 CNS; test: NCI anticancer screen, dose series, 48 h

CC1(C)OC(=O)C(=C2CCC(C(=O)Nc3cccc(C(F)(F)F)c3)N2)C(=O)O1 (configuration not stated) and CN1CCc2ccccc2C(C(=O)c2ccc3c(c2)OCO3)C1=O (configuration not stated) cannot be ordered by TGI: > 100 µM for the first, > 100 µM for the second.

CN(C)CCN1CCc2c([nH]c3ccccc23)C1c1cccnc1 (configuration not stated) and C1=CC2CCC1CN2CCC1CNc2ccccc21 (configuration not stated) cannot be ordered by TGI: > 100 µM for the first, > 100 µM for the second.

CN(C)c1ccc(C(O)C2=CC(=O)c3ccccc3C2=O)cc1 (configuration not stated) and Cc1ccc2ccc(-c3ccccc3)c3c2c1C(=O)c1ccccc1C3=O cannot be ordered by TGI: > 100 µM for the first, > 100 µM for the second.

CCN(c1ccccc1)[C@H]1C(=O)N(c2ccc([N+](=O)[O-])cc2)[C@H]1c1ccc(OC)cc1 and COc1ccc(/C=N/NS(=O)(=O)c2ccccc2)cc1 cannot be ordered by TGI: > 100 µM for the first, > 100 µM for the second.

COc1ccc(/C=C\c2cc(OC)c(OC)c(OC)c2)cc1 and COc1ccc(C2Cc3cc(OC)c(OC)c(OC)c3C2)cc1 (configuration not stated) cannot be ordered by TGI: > 100 µM for the first, > 100 µM for the second.

COc1cc(N(C)C)c(OC)cc1C=C1C=CC=C1 and COc1cc(OC)c2c(=O)c3cccc([N+](=O)[O-])c3n(C)c2c1 cannot be ordered by TGI: > 100 µM for the first, > 100 µM for the second.

First: COc1cccc(/C=N\NC(=O)C(C)SC(C)C(=O)N/N=C/c2cccc(OC)c2)c1 (configuration not stated)
Second: O=C(/C=C/c1ccccc1O)c1ccccc1Cl
The TGI of the first is lower: 97.5 µM for the first, > 100 µM for the second.

O=[N+]([O-])/C=C/c1ccc(Cl)cc1[N+](=O)[O-] and Cc1cc(Cl)ccc1NC(=O)C1C(=O)N(c2ccc(Cl)cc2C)C(=O)/C1=N\NC(N)=S (configuration not stated) cannot be ordered by TGI: > 100 µM for the first, > 100 µM for the second.

O=C(O)c1ccccc1NCn1c(=S)sc2ccccc21 and O=c1oc2c3ccc4ccccc4c3n(CCN3CCCCC3)c2c2ccccc12 cannot be ordered by TGI: > 100 µM for the first, > 68.7 µM for the second.

Compared with Cc1cc(C)nc(NS(=O)(=O)c2ccc(Nc3c4ccccc4nc4c(C(=O)NCCN(C)C)cccc34)cc2)n1, CCCCC1(C(NC(=O)c2ccccc2Cl)c2ccncc2)C(=O)N(c2ccccc2)N(c2ccccc2)C1=O (configuration not stated) is higher in TGI: 20.1 µM for the first, > 100 µM for the second.

COc1cc2c3c(n(CCCNCCCNCCCN)c(=O)c2cc1OC)-c1cc2c(cc1C3=O)OCO2 and COc1cc2c(c(OC)c1OC)C(=O)NCCC2 cannot be ordered by TGI: > 100 µM for the first, > 100 µM for the second.

O=C1CCC(=O)N1Sc1ccccc1 and Cc1ccc(S(=O)C(C)C(Cl)c2ccccc2)cc1 (configuration not stated) cannot be ordered by TGI: > 100 µM for the first, > 100 µM for the second.

Compared with O=CN1N=C(c2cccc(Nc3ccnc4cc(Cl)ccc34)c2)CC1c1ccc(Cl)cc1 (configuration not stated), O=C1C(=O)C2(CC1S(=O)(=O)c1ccccc1)c1ccccc1-c1ccccc12 (configuration not stated) is lower in TGI: > 100 µM for the first, 76.7 µM for the second.

Going from CC(=O)Oc1cc2cnc3c4cc(OC(C)=O)c(OC(C)=O)cc4ccc3c2cc1OC(C)=O to OCC(O)C(O)C(O)c1nn(-c2ccc(F)cc2)c2nc3cc(Cl)c(Cl)cc3nc12 (configuration not stated), the TGI rises from 17.6 µM to 43.3 µM (2.5-fold).

C=C1C[C@@H]2O[C@H]3[C@H]4[C@@H](CC[C@@](C)(OC(=O)CCC)[C@H]42)[C@@H](C)C(=O)O[C@@]3(C)CC[C@H]1OO was tested, and the TGI was 26 µM.

Going from CN(C)c1ccc(C(O)C2=CC(=O)c3ccccc3C2=O)cc1 (configuration not stated) to O=CN1N=C(c2cccc(Nc3ccnc4cc(Cl)ccc34)c2)CC1c1ccc(Cl)cc1 (configuration not stated), the GI50 falls from > 100 µM to 4.37 µM.

Compared with COc1ccc(/C=C\c2cc(OC)c(OC)c(OC)c2)cc1, CC(=O)Oc1cc2cnc3c4cc(OC(C)=O)c(OC(C)=O)cc4ccc3c2cc1OC(C)=O is 28-fold higher in GI50: 0.0443 µM for the first, 1.22 µM for the second.

First: O=[N+]([O-])/C=C/c1ccc(Cl)cc1[N+](=O)[O-]
Second: COc1cc2c3c(n(CCCNCCCNCCCN)c(=O)c2cc1OC)-c1cc2c(cc1C3=O)OCO2
The GI50 of the first is lower: 3.34 µM for the first, > 100 µM for the second.

C=C1C[C@@H]2O[C@H]3[C@H]4[C@@H](CC[C@@](C)(OC(=O)CCC)[C@H]42)[C@@H](C)C(=O)O[C@@]3(C)CC[C@H]1OO showed a GI50 of 12.8 µM.

CCCCCCCCCCCCCCCC[n+]1ccccc1 was tested, and the GI50 was 0.452 µM and 0.861 µM.

In the case of CCCCCCCCCCCCCCCC[n+]1ccccc1, the TGI is reported as 1.71 µM and 2.57 µM.

system: M14 melanoma; test: NCI anticancer screen, dose series, 48 h

CC1(C)OC(=O)C(=C2CCC(C(=O)Nc3cccc(C(F)(F)F)c3)N2)C(=O)O1 (configuration not stated) and CN1CCc2ccccc2C(C(=O)c2ccc3c(c2)OCO3)C1=O (configuration not stated) cannot be ordered by TGI: > 100 µM for the first, > 100 µM for the second.

CN(C)CCN1CCc2c([nH]c3ccccc23)C1c1cccnc1 (configuration not stated) and C1=CC2CCC1CN2CCC1CNc2ccccc21 (configuration not stated) cannot be ordered by TGI: > 100 µM for the first, > 100 µM for the second.

Going from CN(C)c1ccc(C(O)C2=CC(=O)c3ccccc3C2=O)cc1 (configuration not stated) to Cc1ccc2ccc(-c3ccccc3)c3c2c1C(=O)c1ccccc1C3=O, the TGI rises from 29.4 µM to > 100 µM.

COc1ccc(/C=C\c2cc(OC)c(OC)c(OC)c2)cc1 and COc1ccc(C2Cc3cc(OC)c(OC)c(OC)c3C2)cc1 (configuration not stated) cannot be ordered by TGI: > 100 µM for the first, > 100 µM for the second.

COc1cc(N(C)C)c(OC)cc1C=C1C=CC=C1 and COc1cc(OC)c2c(=O)c3cccc([N+](=O)[O-])c3n(C)c2c1 cannot be ordered by TGI: > 100 µM for the first, > 100 µM for the second.

C[C@H]1CC[P+](C)(c2ccccc2)C1 (some centres not stated) and O=C1CCC(=O)N1Sc1ccccc1 cannot be ordered by TGI: > 100 µM for the first, > 100 µM for the second.

C=C1CC[C@H]2C(C)=CC[C@H]3C(=C)C(=O)O[C@@H]3[C@@H]12 and COc1cc2c(c(OC)c1OC)C(=O)NCCC2 cannot be ordered by TGI: > 100 µM for the first, > 100 µM for the second.

COc1cccc(/C=N\NC(=O)C(C)SC(C)C(=O)N/N=C/c2cccc(OC)c2)c1 (configuration not stated) and COc1ccc(/C=N/NS(=O)(=O)c2ccccc2)cc1 cannot be ordered by TGI: > 100 µM for the first, > 100 µM for the second.

Going from O=[N+]([O-])/C=C/c1ccc(Cl)cc1[N+](=O)[O-] to O=C(/C=C/c1ccccc1O)c1ccccc1Cl, the TGI rises from 16.5 µM to > 100 µM.

O=C(O)c1ccccc1NCn1c(=S)sc2ccccc21 and COc1ccc(Br)c(C(=O)N2CCc3ccccc32)c1N cannot be ordered by TGI: > 100 µM for the first, > 100 µM for the second.

First: CCCCCCCCCCCCCCCC[n+]1ccccc1
Second: Cc1ccc(S(=O)C(C)C(Cl)c2ccccc2)cc1 (configuration not stated)
The TGI of the first is lower: 1.04 µM for the first, > 100 µM for the second.

Going from Cc1cc(C)nc(NS(=O)(=O)c2ccc(Nc3c4ccccc4nc4c(C(=O)NCCN(C)C)cccc34)cc2)n1 to CCCCC1(C(NC(=O)c2ccccc2Cl)c2ccncc2)C(=O)N(c2ccccc2)N(c2ccccc2)C1=O (configuration not stated), the TGI rises from 20.4 µM to > 100 µM.

COc1cc2c3c(n(CCCNCCCNCCCN)c(=O)c2cc1OC)-c1cc2c(cc1C3=O)OCO2 and CC(=O)Oc1cc2cnc3c4cc(OC(C)=O)c(OC(C)=O)cc4ccc3c2cc1OC(C)=O cannot be ordered by TGI: > 100 µM for the first, > 100 µM for the second.

O=CN1N=C(c2cccc(Nc3ccnc4cc(Cl)ccc34)c2)CC1c1ccc(Cl)cc1 (configuration not stated) and Cc1cc(Cl)ccc1NC(=O)C1C(=O)N(c2ccc(Cl)cc2C)C(=O)/C1=N\NC(N)=S (configuration not stated) cannot be ordered by TGI: > 100 µM for the first, > 100 µM for the second.

First: O=C1C(=O)C2(CC1S(=O)(=O)c1ccccc1)c1ccccc1-c1ccccc12 (configuration not stated)
Second: O=c1oc2c3ccc4ccccc4c3n(CCN3CCCCC3)c2c2ccccc12
The TGI of the first is lower: 28.4 µM for the first, > 100 µM for the second.

Going from OCC(O)C(O)C(O)c1nn(-c2ccc(F)cc2)c2nc3cc(Cl)c(Cl)cc3nc12 (configuration not stated) to C=C1C[C@@H]2O[C@H]3[C@H]4[C@@H](CC[C@@](C)(OC(=O)CCC)[C@H]42)[C@@H](C)C(=O)O[C@@]3(C)CC[C@H]1OO, the TGI falls from 91.8 µM to 45.3 µM (2-fold).

First: CN(C)c1ccc(C(O)C2=CC(=O)c3ccccc3C2=O)cc1 (configuration not stated)
Second: O=CN1N=C(c2cccc(Nc3ccnc4cc(Cl)ccc34)c2)CC1c1ccc(Cl)cc1 (configuration not stated)
The GI50 of the first is 15-fold higher: 15.4 µM for the first, 1.04 µM for the second.

Compared with O=[N+]([O-])/C=C/c1ccc(Cl)cc1[N+](=O)[O-], CC(=O)Oc1cc2cnc3c4cc(OC(C)=O)c(OC(C)=O)cc4ccc3c2cc1OC(C)=O is 2.5-fold lower in GI50: 4.42 µM for the first, 1.78 µM for the second.

Going from CCCCCCCCCCCCCCCC[n+]1ccccc1 to COc1cc2c3c(n(CCCNCCCNCCCN)c(=O)c2cc1OC)-c1cc2c(cc1C3=O)OCO2, the GI50 rises from 0.28 µM to 52 µM (190-fold).

For C=C1C[C@@H]2O[C@H]3[C@H]4[C@@H](CC[C@@](C)(OC(=O)CCC)[C@H]42)[C@@H](C)C(=O)O[C@@]3(C)CC[C@H]1OO, the GI50 was 23.7 µM.
